SMILES strings stand for the structures. Bounds are passed on as bounds.

For this series, the system named is MDK. Put plainly: Cytotoxicity assay (sulforhodamine staining, CC50). The settings on record: MDK cells; 4 days incubation; concentration reducing cell number by 50%; preliminary results. The series is classed as cell-based. The protocol: Cells are seeded at a rate of between 5×10^3 and 5×10^4/well into 96-well plates in growth medium overnight at 37° C. in a humidified CO2 (5%) atmosphere. New growth medium containing serial dilutions of the drugs is then added. After incubation for 4 days, cultures are fixed in 50% TCA and stained with sulforhodamine. The optical density was read at 550 nm. The cytotoxic concentration was expressed as the concentration required to reduce the cell number by 50% (CC50).
Regarding `Cc1cn([C@@H]2O[C@](C)(CO)[C@@H](O)[C@H]2O)c(=O)[nH]c1=O` [β-D-4′-CH3-riboT], the CC50 (as a rule, the concentration at which the toxic effect on the cells reaches its halfway point) was above 250 µM.
`C[C@]1(CO)O[C@@H](n2cnc3c(=O)[nH]c(N)nc32)[C@H](O)[C@@H]1O` [β-D-4′-CH3-riboG] yielded a CC50 above 250 µM.
Then `C[C@]1(CO)O[C@@H](n2ccc(=S)[nH]c2=O)[C@H](O)[C@@H]1O` [β-D-4′-CH3-ribo-4-thioU], with above 250 µM.
Then `CC1(CO)OC(n2cc(F)c(=O)[nH]c2=O)C(O)C1O` [β-D-4′-CH3-ribo-5-fluoroU], with above 167 µM.
Then `C[C@]1(CO)O[C@@H](n2ccc(N)nc2=O)[C@H](O)[C@@H]1O` [β-D-4′-CH3-riboC], with above 250 µM; and `C[C@]1(CO)O[C@@H](n2cnc3c(N)ncnc32)[C@H](O)[C@@H]1O` [β-D-4′-CH3-riboA], with above 250 µM.

Values taken from US9186369B2, “Purine nucleoside analogues for treating flaviviridae including hepatitis C” (Idenix Pharmaceuticals, Inc., priority 2003, dated 2015).
